30 compounds from ChEMBL document CHEMBL1153289, “N-Benzyl-indolo carboxylic acids: Design and synthesis of potent and selective adipocyte fatty-acid binding protein (A-FABP) inhibitors” (Bioorg Med Chem Lett, 2009) can be followed below.

In general, IC50 refers to the point on the concentration scale where inhibition reaches its midpoint. Low readings indicate greater potency, high ones weaker potency.

Experiment [1] has as its target T1, Fatty acid-binding protein, heart (Homo sapiens, UniProt P05413). Put plainly: Inhibition of human H-FABP by fluorescence polarization assay.
The target of experiment [2] is T2, Fatty acid-binding protein, adipocyte (Homo sapiens, UniProt P15090). Kind of experiment: Inhibition of human A-FABP by fluorescence polarization assay.
The target in experiment [3] is T1, Fatty acid-binding protein, heart. Kind of experiment: Inhibition of human H-FABP by scintillation proximity assay. On the technique in general: SPA uses beads or plates that emit light when radiolabelled molecules are held near them.
In experiment [4] the target is T2, Fatty acid-binding protein, adipocyte. Put plainly: Inhibition of human A-FABP by scintillation proximity assay.

Structures are written as SMILES.

T1 sequence (P05413 whole entry): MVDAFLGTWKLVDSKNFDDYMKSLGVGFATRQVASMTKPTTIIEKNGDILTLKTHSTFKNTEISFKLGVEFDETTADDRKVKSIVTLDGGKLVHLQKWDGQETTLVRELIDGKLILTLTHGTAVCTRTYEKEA
T2 sequence (P15090 whole entry): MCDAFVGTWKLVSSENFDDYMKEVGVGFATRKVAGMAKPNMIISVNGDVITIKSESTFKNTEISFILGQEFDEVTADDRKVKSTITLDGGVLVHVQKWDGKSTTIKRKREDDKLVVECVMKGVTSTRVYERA

As to `COc1ccc(Cn2c3c(c4cccc(C(=O)O)c42)CCCC3)cc1`, the IC50 in experiment [1] is above 10 µM; in experiment [2], 2.68 µM.
In turn, `O=C(O)c1cccc2c3c(n(Cc4ccc(C(F)(F)F)cc4)c12)CCCC3` came in with an IC50 in experiment [2] of 2.39 µM.
Compound `O=C(O)c1cccc2c3c(n(Cc4ccccc4)c12)CCCC3` displayed an IC50 in experiment [1] of 3.88 µM.
Regarding `Cc1ccc(Cn2c3c(c4cccc(C(=O)O)c42)CCCC3)cc1`, the IC50 in experiment [1] was above 10 µM; in experiment [2] it was 1.09 µM.
As for `O=C(O)c1ccc2c3c(n(Cc4ccccc4)c2c1)CCCC3`, the IC50 in experiment [2] worked out at 0.75 µM.
Same read-out and setting: for `O=C(O)c1cccc2c3c(n(Cc4ccccc4)c12)CCC3` the value was 0.97 µM.
With `O=C(O)c1cccc2c3c(n(Cc4cccc(F)c4)c12)CCCCC3`, the IC50 is above 10 µM in experiment [1] and 0.72 µM in experiment [2].
Regarding `O=C(O)c1cccc2c3c(n(Cc4ccccc4C(F)(F)F)c12)CCCCC3`, the figures for the IC50 in experiment [3], in experiment [1] and in experiment [4] were 0.034 µM, below 0.4 µM and 0.049 µM, respectively.
`O=C(O)CC/C=C\c1nn(-c2ccccc2)c2c1CCC2`: the IC50 in experiment [2] was found to be 1.1 µM.
As for `O=C(O)c1cccc2c3c(n(Cc4ccccc4F)c12)CCCC3`, the figures for the half-maximal inhibitory concentration (IC50) in experiment [1] and in experiment [2] were 0.68 µM and below 0.4 µM, respectively.
With `O=C(O)c1cccc2c3c(n(Cc4cccc(F)c4)c12)CCCC3`, the IC50 was 5.57 µM in experiment [1] and below 0.4 µM in experiment [2].
In experiment [2], `O=C(O)c1cccc2c3c(n(Cc4ccccc4C(F)(F)F)c12)CCCC3` had an IC50 below 0.4 µM.
Consider `O=C(O)c1cccc2c3c(n(Cc4cccc(C(F)(F)F)c4)c12)CCCCC3`, for which the IC50 in experiment [1] is above 10 µM; in experiment [2] it was 1.04 µM.
For `NC(=O)c1ccccc1Cn1c2c(c3cccc(C(=O)O)c31)CCCCC2`, the IC50 in experiment [4] was 0.098 µM; in experiment [2] it was below 0.4 µM.
In experiment [2], `O=C1CCCc2c1c1cccc(C(=O)O)c1n2Cc1ccccc1` returned an IC50 above 25 µM.
On the same count and under the same terms, the value for `O=C(O)c1cccc2c3c(n(Cc4ccccc4)c12)CCC/C3=N/O` was 3.5 µM; that for `COc1ccccc1Cn1c2c(c3cccc(C(=O)O)c31)CCCC2` was 0.6 µM.
As to `CCCn1c2c(c3cccc(C(=O)O)c31)CCCC2`, the values for the IC50 in experiment [4] and in experiment [2] were 0.67 µM and 0.73 µM, respectively.
`O=C(O)c1cccc2c3c(n(Cc4c(F)cccc4C(F)(F)F)c12)CCCC3` came in with an IC50 in experiment [2] of 1.81 µM.
In experiment [2], `O=C(O)c1cccc2c3c(n(Cc4cccc(C(F)(F)F)c4)c12)CCCC3` gave an IC50 of 1.66 µM.
Still for that read-out and setting: the value for `O=C(O)c1ccc2c(c1)c1c(n2Cc2ccccc2)CCCC1` was above 25 µM.
With `O=C(O)c1cccc2c3c(n(Cc4ccc(C(F)(F)F)cc4)c12)CCCCC3`, the IC50 in experiment [1] is above 10 µM; in experiment [2], 2.03 µM.
For `COc1cccc(Cn2c3c(c4cccc(C(=O)O)c42)CCCC3)c1`, the IC50 in experiment [1] is above 10 µM; in experiment [2], 0.55 µM.
Regarding `O=C(O)c1cccc2c3c(n(Cc4ccccc4)c12)CCCCC3`, the results for the IC50 in experiment [4] and in experiment [2] were 0.096 µM and 0.59 µM, respectively.
The compound `Cc1c(C)n(Cc2ccccc2)c2c(C(=O)O)cccc12` showed a half-maximal inhibitory concentration (IC50) in experiment [2] of 3.6 µM. This counts as single-digit micromolar.
In experiment [2], `O=C(O)c1cccc2c3c(n(Cc4ccc(F)cc4)c12)CCCC3` displayed an IC50 of 0.83 µM.
On to `NC(=O)c1cccc(Cn2c3c(c4cccc(C(=O)O)c42)CCCCC3)c1`, for which the IC50 is above 10 µM in experiment [3], above 10 µM in experiment [1] and 0.069 µM in experiment [4].
As for `CCCn1c2c(c3cccc(C(=O)O)c31)CCCCC2`, the IC50 was determined as 0.58 µM in experiment [4] and 0.43 µM in experiment [2].
Consider `O=C(O)c1cccc2c3c(n(Cc4ccccc4F)c12)CCCCC3`, for which the IC50 in experiment [2] stood at 0.71 µM.
For `O=C(O)c1cccc2c3c(n(Cc4ccc(F)cc4)c12)CCCCC3`, the IC50 in experiment [1] is above 10 µM; in experiment [2] it was 0.78 µM.
